Molecular target: RIPK1 kinase (Homo sapiens (Human), UniProt Q13546)
Test: RIPK1 kinase inhibitory assay (ADP-Glo)
Type: biochemical
Conditions: 10 μM compound; read-out: Inhibition rate of RIPK1 at 10 μM (%)
Method: Materials and Instruments: ADP-Glo kinase kit (purchased from Promega), RIPK1 GST-Th-Tag (purchased from Bps Bioscience), MBP substrate (purchased from Millipore), nunc 384-well plate, ATP fluorescence analyzer Paradigm detection platform (purchased from Beckman coulter)
The compounds were diluted in DMSO and configured into a solution with a final concentration of 10 mM; Dilute RIP1 kinase from 140 ng/μL to 20 ng/μL for use. Dilute 10 mM of ATP to 100 μM for later use; Dilute 5 mg/mL of MBP to 1 mg/mL for later use. Appropriate embodiments were added into the well of the 384-well plate, 10 μl […] ATP was evenly mixed with 1 μl 1 mg/mL MB P, the mixed solution was added to the well, and 2 μL […] RIP1 kinase was added to the hole, and then incubated at room temperature for 1 h. Subsequently, 5 μL ADP-Glo reagent was added to each well and incubated at room temperature for 40 min. Then, 10 μL ADP-Glo detection reagent was added to each well and incubated at room temperature for 30 min. Finally, the RLU value (relative light unit) of each well was measured by ATP fluorometer, and each sample was repeated twice. Inhibition rate=(RLU value of blank group−RLU value of drug administration group)/RLU value of blank group×100%.

Chain of RIPK1 kinase (Q13546 whole entry): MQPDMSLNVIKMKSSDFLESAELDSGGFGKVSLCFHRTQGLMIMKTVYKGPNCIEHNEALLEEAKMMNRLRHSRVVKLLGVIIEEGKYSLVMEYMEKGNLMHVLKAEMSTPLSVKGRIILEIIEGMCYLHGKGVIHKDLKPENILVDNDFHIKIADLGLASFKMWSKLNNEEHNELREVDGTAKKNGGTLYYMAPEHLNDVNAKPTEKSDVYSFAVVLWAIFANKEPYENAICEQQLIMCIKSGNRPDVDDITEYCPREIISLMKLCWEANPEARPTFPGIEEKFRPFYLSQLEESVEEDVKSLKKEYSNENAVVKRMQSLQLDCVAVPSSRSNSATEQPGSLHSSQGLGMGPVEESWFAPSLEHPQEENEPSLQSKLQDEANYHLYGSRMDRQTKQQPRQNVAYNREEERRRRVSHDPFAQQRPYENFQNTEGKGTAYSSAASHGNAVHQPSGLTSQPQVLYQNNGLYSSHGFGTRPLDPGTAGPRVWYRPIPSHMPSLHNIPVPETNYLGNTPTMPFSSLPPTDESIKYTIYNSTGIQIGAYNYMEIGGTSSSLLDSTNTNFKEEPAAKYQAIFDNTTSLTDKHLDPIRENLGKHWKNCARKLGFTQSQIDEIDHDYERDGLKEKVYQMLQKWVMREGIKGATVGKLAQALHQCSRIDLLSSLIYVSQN

Compound | inhibition at 10 µM
CN1CCC2(CC1)CCN(Cc1ccccc1)C2=O [Compound 21, 2-benzyl-8-methyl-2,8-diazaspiro[4.5]decan-1-one] | 5%
O=C(c1ccccc1)N1CCC2(C=NN(Cc3ccc(F)cc3)C2=O)CC1 [Compound 65, 8-benzoyl-2-(4-fluorobenzyl)-2,3,8-triazaspiro[4.5]dec-3-en-1-one] | 27%
O=C(c1c[nH]c2ccccc12)N1CCC2(CC1)CCN(Cc1ccccc1)C2=O [Compound 23, 2-benzyl-8-(1H-indole-3-carbonyl)-2,8-diazaspiro[4.5]decan-1-one] | > 50%
CN1C(=O)N(Cc2cccnc2)C(=O)C12CCN(C(=O)c1ccccc1)CC2 [Compound 5, 8-benzoyl-1-methyl-3-(pyridin-3-ylmethyl)-1,3,8-triazaspiro [4.5]decane-2,4-dione] | 20%
O=C(c1ccccc1)N1CCC2(CC1)CNN(Cc1ccccc1)C2=O [Compound 71, 8-benzoyl-2-benzyl-2,3,8-triazaspiro[4.5]decan-1-one] | 31%
O=C(c1ccccc1)N1CCC2(C=NN(Cc3cccc(C(F)(F)F)c3)C2=O)CC1 [Compound 68, 8-benzoyl-2-(3-(trifluoromethyl)benzyl)-2,3,8-triazaspiro[4.5]dec-3-en-1-one] | 13%
O=C(c1ccccc1)N1CCC2(CC1)N=CN(Cc1ccccc1)C2=O [Compound 59, 8-benzoyl-3-benzyl-1,3,8-triazaspiro[4.5]dec-1-en-4-one] | 38%
O=C(c1ccccc1)N1CCC2(CC1)CCN(CC1CCCCC1)C2=O [Compound 11, 8-benzoyl-2-(cyclohexylmethyl)-2,8-diazaspiro[4.5]decan-1-one] | > 50%
CN1C(=O)N(CC2CCCC2)C(=O)C12CCN(C(=O)c1ccccc1)CC2 [Compound 8, 8-benzoyl-3-(cyclopentylmethyl)-1-methyl-1,3,8-triazaspiro [4.5]decane-2,4-dione] | 22%
O=C(c1ccccc1)N1CCC2(CCCN(Cc3ccccc3)C2=O)CC1 [Compound 74, 9-benzoyl-2-benzyl-2,9-diazaspiro[5.5]undecan-1-one] | > 50%
O=C1N(Cc2ccccc2)CCC12CCN(S(=O)(=O)c1ccccc1)CC2 [Compound 20, 2-benzyl-8-(phenylsulfonyl)-2,8-diazaspiro [4.5]decan-1-one] | 21%
CN1C(=O)N(Cc2cccc(Cl)c2)C(=O)C12CCN(C(=O)c1ccccc1)CC2 [Compound 3, 8-benzoyl-3-(3-chlorobenzyl)-1-methyl-1,3,8-triazaspiro[4.5]decane-2,4-dione] | 11%
O=C(c1ccccc1)N1CCC2(CC1)CNN(Cc1ccccc1F)C2=O [Compound 72, 8-benzoyl-2-(2-fluorobenzyl)-2,3,8-triazaspiro[4.5]decan-1-one] | 40%
O=C(c1ccccc1)N1CCC2(C=NN(Cc3ccccc3)C2=O)CC1 [Compound 62, 8-benzoyl-2-benzyl-2,3,8-triazaspiro[4.5]dec-3-en-1-one] | > 50%
O=C(c1ccccc1)N1CCC2(C=NN(Cc3ccccc3F)C2=O)CC1 [Compound 63, 8-benzoyl-2-(2-fluorobenzyl)-2,3,8-triazaspiro[4.5]dec-3-en-1-one] | > 50%
CN1C(=O)N(Cc2ccc(C(F)(F)F)cc2)C(=O)C12CCN(C(=O)c1ccccc1)CC2 [Compound 4, 8-benzoyl-1-methyl-3-(4-(trifluoromethyl)benzyl)-1,3,8-triazaspiro decane-2,4-dione] | 16%
CN1C(=O)N(CC2CCCCC2)C(=O)C12CCN(C(=O)c1ccccc1)CC2 [Compound 7, 8-benzoyl-3-(cyclohexylmethyl)-1-methyl-1,3,8-triazaspiro [4.5]decane-2,4-dione] | 34%

More lines, now with the values ahead:

inhibition at 10 µM | Compound
> 50% | O=C(c1ccccc1)N1CCC2(CC1)CCN(Cc1c(F)cccc1F)C2=O [Compound 37, 8-benzoyl-2-(2,6-difluorobenzyl)-2,8-diazaspiro[4.5]decan-1-one]
6% | N#Cc1ccccc1CN1CCC2(CCN(C(=O)c3ccccc3)CC2)C1=O [Compound 54, 2-((8-benzoyl-1-oxo-2,8-diazaspiro[4.5]decan-2-yl)methyl) benzonitrile]
17% | N#Cc1ccc(N2CCC3(CCN(Cc4cc(F)ccc4F)C3=O)CC2)nn1 [Compound 56, 6-(2-(2,5-difluorobenzyl)-1-oxo-2,8-diazaspiro[4.5]decan-8-yl)pyridazine-3-carbonitrile]
> 50% | O=C(c1ccccc1)N1CCC2(CC1)CCN(Cc1ccccc1)C2=O [Compound 9, 8-benzoyl-2-benzyl-2,8-diazaspiro[4.5]decan-1-one]
> 50% | O=C(c1cnco1)N1CCC2(CC1)CCN(Cc1ccccc1F)C2=O [Compound 30, 2-(2-fluorobenzyl)-8-(oxazole-5-carbonyl)-2,8-diazaspiro[4.5]decan-1-one]
> 50% | O=C(c1ccccc1)N1CCC2(CC1)CCN(Cc1cccc(F)c1)C2=O [Compound 32, 8-benzoyl-2-(3-fluorobenzyl)-2,8-diazaspiro[4.5]decan-1-one]
> 50% | O=C(c1ccccc1)N1CCC2(CC1)CCN(Cc1cc(F)cc(F)c1)C2=O [Compound 35, 8-benzoyl-2-(3,5-difluorobenzyl)-2,8-diazaspiro[4.5]decan-1-one]
> 50% | O=C(c1ccccc1)N1CCC2(CC1)CCN(Cc1ccc(F)c(F)c1F)C2=O [Compound 38, 8-benzoyl-2-(2,3,4-trifluorobenzyl)-2,8-diazaspiro[4.5]decan-1-one]
> 50% | O=C(c1ccncc1)N1CCC2(CC1)CCN(Cc1ccccc1)C2=O [Compound 16, 2-benzyl-8-isonicotinoyl-2,8-diazaspiro[4.5]decan-1-one]
> 50% | N#Cc1ccnc(N2CCC3(CCN(Cc4cc(F)ccc4F)C3=O)CC2)n1 [Compound 52, 2-(2-(2,5-difluorobenzyl)-1-oxo-2,8-diazaspiro[4.5]decan-8-yl) pyrimidine-4-carbonitrile]
> 50% | O=C(c1ccccc1)N1CCC2(CC1)CCN(Cc1cc(F)cc(F)c1F)C2=O [Compound 53, 8-benzoyl-2-(2,3,5-trifluorobenzyl)-2,8-diazaspiro[4.5]decan-1-one]
14% | Cn1cnc2ccc(C(=O)N3CCC4(CC3)CCN(Cc3ccccc3)C4=O)cc21 [Compound 26, 2-benzyl-8-(1-methyl-1H-benzo[d]imidazole-6-carbonyl)-2,8-diazaspiro[4.5]decan-1-one]
> 50% | O=C(c1ccccc1)N1CCC2(CC1)CCN(Cc1cccc(F)c1F)C2=O [Compound 40, 8-benzoyl-2-(2,3-difluorobenzyl)-2,8-diazaspiro[4.5]decan-1-one]
> 50% | O=C(c1ccc2ccoc2c1)N1CCC2(CC1)CCN(Cc1cc(F)ccc1F)C2=O [Compound 76, 8-(benzofuran-6-carbonyl)-2-(2,5-difluorobenzyl)-2,8-diazaspiro [4.5]decan-1-one]
> 50% | O=C(c1ccccc1)N1CCC2(CC1)CCN(Cc1ccc(F)cc1F)C2=O [Compound 43, 8-benzoyl-2-(2,4-difluorobenzyl)-2,8-diazaspiro[4.5]decan-1-one]
13% | Cc1nnc(N2CCC3(CCN(Cc4cc(F)ccc4F)C3=O)CC2)o1 [Compound 55, 2-(2,5-difluorobenzyl)-8-(5-methyl-1,3,4-oxadiazol-2-yl)-2,8-diazaspiro[4.5]decan-1-one]
41% | O=C1N(Cc2cc(F)ccc2F)CCC12CCN(c1ncccn1)CC2 [Compound 51, 2-(2,5-difluorobenzyl)-8-(pyrimidin-2-yl)-2,8-diazaspiro[4.5]decan-1-one]
43% | O=C(c1ccccc1)N1CCC2(CC1)CCN(Cc1c(F)cccc1Cl)C2=O [Compound 45, 8-benzoyl-2-(2-chloro-6-fluorobenzyl)-2,8-diazaspiro[4.5]decan-1-one]
8% | CC(C)N1CCC2(CCN(Cc3ccccc3)C2=O)CC1 [Compound 22, 2-benzyl-8-isopropyl-2,8-diazaspiro[4.5]decan-1-one]
> 50% | O=C(c1ccccc1)N1CCC2(CC1)CCN(Cc1ccc(F)cc1)C2=O [Compound 33, 8-benzoyl-2-(4-fluorobenzyl)-2,8-diazaspiro[4.5]decan-1-one]
> 50% | O=C(c1ccccc1)N1CCC2(CC1)CCN(Cc1cccc(Cl)c1)C2=O [Compound 10, 8-benzoyl-2-(3-chlorobenzyl)-2,8-diazaspiro[4.5]decan-1-one]
> 50% | O=C(c1ccccc1)N1CCC2(CC1)CCN(Cc1ccccn1)C2=O [Compound 14, 8-benzoyl-2-(pyridin-2-ylmethyl)-2,8-diazaspiro[4.5]decan-1-one]
> 50% | O=C(c1ccccc1)N1CCC2(CC1)CCN(Cc1cc(F)c(F)cc1F)C2=O [Compound 41, 8-benzoyl-2-(2,4,5-trifluorobenzyl)-2,8-diazaspiro[4.5]decan-1-one]
> 50% | O=C(c1ccccc1)N1CCC2(CC1)CCN(Cc1ccc(C(F)(F)F)cc1)C2=O [Compound 15, 8-benzoyl-2-(4-(trifluoromethyl)benzyl)-2,8-diazaspiro[4.5]decan-1-one]
